In the METLIN SMRT retention time set (Domingo-Almenara et al. 2019):

Assay: gradient 5% acetonitrile 3 min, to 50% in 2 min, to 85% in 15 min, held 3 min, 100 µL/min
Settings: column: Zorbax Extend-C18 2.1 x 50 mm; eluents: water / acetonitrile, 0.1% formic acid
Outline: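 Values are retention times taken from adduct peaks that software picked and an analyst inspected. The pure standards were run as mixtures of ~100 molecules on HPLC linked to a quadrupole time-of-flight mass spectrometer, in positive and negative ionization mode. A Zorbax Extend-C18 column (2.1 × 50 mm, 1.8 μm) was used at 100 μL/min with water and acetonitrile, each including 0.1% formic acid.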

Compound	RP-LC retention time [s]
Cc1ccc(NC(=O)Cn2nc(N(C)C)c3ccccc3c2=O)c(F)c1	805
CC(C)NC(=O)N1CC(c2nc(-c3ccccc3)no2)C2(CCOCC2)C1 (centres undefined)	715
CCOc1ccc(NC(=O)Cn2nc3n(c2=O)CCCC3)cc1	655
O=C(Cc1cccn1-c1ccc(Cl)cc1)NC1CCCC1	945
CCCN1C(=O)COc2cc(-c3noc(C(=O)NC4CCCCCC4)n3)ccc21	1150
O=C(c1ccc2c(c1)OCO2)N1CCC(Nc2ncnc3c2CCC3)C1 (centres undefined)	564
CC(C)(c1cc(Cl)c(O)c(CN2CCOCC2)c1)c1cc(Cl)c(O)c(CN2CCOCC2)c1	630
COCCNC(=O)Cc1ccc(NC(=O)c2ccc(Br)o2)cc1	637
CCCCn1cc(S(=O)(=O)N2CCN(c3ccc(C)cc3)CC2)c2cccnc21	1220
CC(C)CCC(=O)N1CCC(N2C[C@H](O)C[C@H]2C(N)=O)CC1	571
Cc1ccc(NC(=O)N2CCCC(C)(C(=O)NCc3ccccc3C)C2)c(C)c1 (centres undefined)	1000
COc1ccc(CCNC(=O)C2CCCN(c3ncnc4c3nc3n4CCCCC3)C2)c(OC)c1 (centres undefined)	778
CC(=O)C1=C(C)N(Cc2ccccc2)C(=O)C1(NC(=O)C1CCCCC1)C(F)(F)F (centres undefined)	1020
Cc1ccc(N2C=C(C(=O)N3CCC(C)CC3)S(=O)(=O)c3ccccc32)cc1F	974
